Drawing on paper PMC3466269, “A Comprehensive Strategy to Discover Inhibitors of the Translesion Synthesis DNA Polymerase κ” (PLoS ONE, 2012), this text covers IC50 for one molecule.

One assay addresses T1, Human pol ι (Homo sapiens, UniProt Q9UNA4).
T1 construct: purchased Enzymax Inc. (Lexington, KY)
T1 sequence (Q9UNA4 1-740): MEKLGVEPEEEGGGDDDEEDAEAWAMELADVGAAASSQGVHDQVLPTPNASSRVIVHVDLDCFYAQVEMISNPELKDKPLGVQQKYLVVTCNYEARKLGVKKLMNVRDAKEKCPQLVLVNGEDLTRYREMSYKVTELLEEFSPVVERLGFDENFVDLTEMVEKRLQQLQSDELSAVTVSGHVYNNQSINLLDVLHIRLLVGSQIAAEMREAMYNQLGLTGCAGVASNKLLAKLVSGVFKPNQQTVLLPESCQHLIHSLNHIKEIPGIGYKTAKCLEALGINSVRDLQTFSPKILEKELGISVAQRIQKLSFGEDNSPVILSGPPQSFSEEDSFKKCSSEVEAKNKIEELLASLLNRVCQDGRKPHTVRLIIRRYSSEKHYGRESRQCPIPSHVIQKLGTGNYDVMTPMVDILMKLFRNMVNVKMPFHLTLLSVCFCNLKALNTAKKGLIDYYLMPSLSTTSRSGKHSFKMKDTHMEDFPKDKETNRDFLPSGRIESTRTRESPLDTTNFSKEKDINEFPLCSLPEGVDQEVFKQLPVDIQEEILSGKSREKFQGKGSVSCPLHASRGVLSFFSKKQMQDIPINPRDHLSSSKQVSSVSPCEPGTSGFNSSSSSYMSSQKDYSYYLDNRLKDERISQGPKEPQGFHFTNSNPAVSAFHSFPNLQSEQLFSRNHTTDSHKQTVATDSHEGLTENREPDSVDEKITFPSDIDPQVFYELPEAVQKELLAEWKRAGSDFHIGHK
The experiment in a line: Radioactive gel-based primer extension assay on non-damaged DNA, pol ι. The settings on record: average ± standard error, three experiments. The format is biochemical. The procedure: The reactions with pol κ, pol η, and pol ι were carried out in the buffers containing 25 mM Tris-HCl, pH 7.5, 8 mM MgCl2, 10% glycerol, 100 µg/mL bovine serum albumin, and 5 mM DTT. Buffers for pol δ reactions contained 40 mM Hepes-KOH, pH 6.8, 10% glycerol, 200 µg/mL bovine serum albumin, 1 mM DTT, and 8 mM MgCl2. Final concentration of pol κ, pol η, pol ι, or pol δ in the reaction was 0.25 nM, 1 nM, 2.5 nM, or 4 nM, respectively. In this assay, a polymerase was preincubated with the compound for 15 min at room temperature. Primer extensions were then initiated by the addition of DNA substrate at final concentration of 5 nM and carried out for 30 min at room temperature in the presence of 100 µM dCTP and dGTP. The reactions were terminated by the addition of an equal volume of a dye solution containing 95% (v/v) formamide, 10 mM EDTA, 0.03% (w/v) xylene cyanol, and 0.03% (w/v) bromphenol blue. Reaction products were separated through a 15% acrylamide gel containing 8 M urea and visualized with a PhosphorImager screen. The ratio of extended primer to the total amount of primer was measured using ImageQuant 5.2 software to calculate the percentage of primer extended. IC50 values were determined by fitting the data to variable slope four-parameter equations using GraphPad Prism 5.

Assay [1] concerns the target T2, Human pol κ (residues 19–526) (Homo sapiens, UniProt Q9UBT6).
T2 construct: Human pol κ (residues 19–526) was purified as previously reported; made in house
T2 sequence (Q9UBT6 19-526): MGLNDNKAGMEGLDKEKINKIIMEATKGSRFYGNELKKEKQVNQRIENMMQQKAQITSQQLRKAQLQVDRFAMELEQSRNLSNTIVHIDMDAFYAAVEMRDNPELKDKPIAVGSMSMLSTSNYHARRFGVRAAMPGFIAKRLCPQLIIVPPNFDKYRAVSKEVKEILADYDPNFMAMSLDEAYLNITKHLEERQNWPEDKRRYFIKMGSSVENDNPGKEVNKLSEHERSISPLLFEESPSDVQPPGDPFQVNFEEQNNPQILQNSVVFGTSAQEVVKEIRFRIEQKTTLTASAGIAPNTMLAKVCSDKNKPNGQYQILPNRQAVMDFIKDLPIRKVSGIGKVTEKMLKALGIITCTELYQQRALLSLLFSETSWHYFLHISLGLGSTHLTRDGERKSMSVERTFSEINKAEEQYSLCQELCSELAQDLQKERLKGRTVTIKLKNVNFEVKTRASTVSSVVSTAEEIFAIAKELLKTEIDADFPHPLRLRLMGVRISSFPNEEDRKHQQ
The experiment in a line: qHTS fluorescence-based DNA strand displacement assay. It counts as biochemical. The settings on record: fluorescence strand displacement, 10 nM pol κ, 50 nM substrate, 100 µM dTTP; read-out: qHTS: IC50. Here is the method:
The substrate used in qHTS was made by the annealing of unlabeled oligodeoxynucleotide primer (5′-TCACCCTCGTACGACTC-3′) and TAMRA-labeled reporter strand (5′-TTTTTTTTTTGC-6-TAMRA-3′) to oligodeoxynucleotide template labeled with BHQ-2 (5′-BHQ-2-[…]-3′) as originally described by Dorjsuren et al.. The annealing mixture of unlabeled primer, TAMRA-labeled reporter, and BHQ-2-labeled template in buffer containing 50 mM Tris-HCl, pH 8.0, 100 mM NaCl, and 5 mM MgCl2 was heated at 95°C for 5 min and allowed to cool gradually to room temperature. The substrate was then stored at −20°C as 50 µM stock.
qHTS was performed in 50 mM Tris-HCI, pH 8.0, 40 mM NaCl, 1 mM MgCl2, 0.01% Tween-20, 2 mM DTT, and 100 µM dTTP. 3 µL of reagents (buffer as negative control and pol κ in the remaining plate at 10 nM final concentration) were dispensed by Flying Reagent Dispenser™ (FRD) (Beckman Coulter, Inc., Fullerton, CA) into a 1,536-well plate. Compounds were delivered as 23 nL in DMSO solution via pintool transfer; vehicle-only control consisted of 23 nL DMSO. The plate was incubated for 15 min at room temperature, and then 1 µL of substrate (50 nM final concentration) was added to initiate the reaction. The plate was immediately transferred into ViewLux reader for kinetic fluorescence data collection.
To lay the foundation for the methodologies to discover and characterize inhibitors of pol κ, we used a fluorescent reporter strand displacement assay (Figure 1 and [27]). The library of bioactive small molecules was tested as seven-point dilution series, with the final concentrations ranging from 2.9 nM to 57 µM.

Broadly, the IC50 is the concentration that gives 50% inhibition. As for `CCOc1nc2cccc(C(=O)OC(C)OC(=O)OC3CCCCC3)c2n1Cc1ccc(-c2ccccc2-c2nnn[nH]2)cc1` (centres unmarked) [candesartan cilexetil, Candesartan cilexetil], the concentration for half-maximal inhibition (IC50) was determined as 6.2 ± 0.6 µM at Human pol ι and 32 µM in assay [1].
